Data: patent US10670605B2, “Cysteine reactive probes and uses thereof” (The Scripps Research Institute, priority 2015, dated 2020)

How the values were obtained:
Assay in all cases: Competitive isoTOP-ABPP, cell lysates;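 on isoTOP-ABPP reactivity profile ratio, P09211 C48: Heavy/light ratio DMSO over fragment-treated so higher means more cysteine engagement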;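 on isoTOP-ABPP reactivity profile ratio, Q15084 C190: Heavy/light ratio DMSO over fragment-treated so higher means more cysteine engagement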
Format in all cases: binding
ACAT1 C119 (P24752) = target: T1, ACAT1 C119 (P24752) (Homo sapiens, UniProt P24752)
T1 sequence (P24752 34-427): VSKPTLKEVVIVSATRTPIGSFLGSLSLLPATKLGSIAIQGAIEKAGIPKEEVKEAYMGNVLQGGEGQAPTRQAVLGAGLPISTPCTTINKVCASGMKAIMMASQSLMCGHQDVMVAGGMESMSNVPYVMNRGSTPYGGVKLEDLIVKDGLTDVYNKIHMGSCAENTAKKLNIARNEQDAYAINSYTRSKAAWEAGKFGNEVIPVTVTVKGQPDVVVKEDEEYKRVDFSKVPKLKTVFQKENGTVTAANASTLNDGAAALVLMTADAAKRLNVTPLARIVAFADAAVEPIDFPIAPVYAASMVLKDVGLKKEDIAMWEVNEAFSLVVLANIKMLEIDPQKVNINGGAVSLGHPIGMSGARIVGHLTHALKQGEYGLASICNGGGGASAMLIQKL

UBE2S C118 (Q16763) = target: T2, UBE2S C118 (Q16763) (Homo sapiens, UniProt Q16763)
T2 sequence (Q16763 1-222): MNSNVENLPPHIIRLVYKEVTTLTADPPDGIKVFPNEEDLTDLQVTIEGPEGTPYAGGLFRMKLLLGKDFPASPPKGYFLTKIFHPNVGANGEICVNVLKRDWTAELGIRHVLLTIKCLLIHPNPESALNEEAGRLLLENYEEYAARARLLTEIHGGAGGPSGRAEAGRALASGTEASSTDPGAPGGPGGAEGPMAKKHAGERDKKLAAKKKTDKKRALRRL

PDIA6 C190 (Q15084) = target: T3, PDIA6 C190 (Q15084) (Homo sapiens, UniProt Q15084);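 on isoTOP-ABPP reactivity profile ratio, Q15084 C190: Heavy/light ratio DMSO over fragment-treated so higher means more cysteine engagement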
T3 sequence (Q15084 20-440): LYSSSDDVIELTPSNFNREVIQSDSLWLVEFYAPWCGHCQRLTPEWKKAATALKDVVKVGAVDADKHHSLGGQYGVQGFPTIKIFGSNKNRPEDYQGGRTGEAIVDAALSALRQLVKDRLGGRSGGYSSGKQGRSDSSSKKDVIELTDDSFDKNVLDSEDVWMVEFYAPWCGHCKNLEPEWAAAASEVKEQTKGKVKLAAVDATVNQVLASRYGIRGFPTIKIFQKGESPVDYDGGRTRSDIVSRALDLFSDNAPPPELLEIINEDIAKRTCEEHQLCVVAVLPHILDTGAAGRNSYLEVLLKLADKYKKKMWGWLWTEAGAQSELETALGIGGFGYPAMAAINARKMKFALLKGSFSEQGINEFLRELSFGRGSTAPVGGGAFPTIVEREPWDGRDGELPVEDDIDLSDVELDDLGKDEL

XPO1 C34 (O14980) = XPO1 C34 (O14980) (Homo sapiens, UniProt O14980)
SMARCC2 C145 (Q8TAQ2) = SMARCC2 C145 (Q8TAQ2) (Homo sapiens, UniProt Q8TAQ2)
GSTP1 C48 (P09211) = GSTP1 C48 (P09211) (Homo sapiens, UniProt P09211);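 on isoTOP-ABPP reactivity profile ratio, P09211 C48: Heavy/light ratio DMSO over fragment-treated so higher means more cysteine engagement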
PDIA6 C55 (Q15084) = target: T4, PDIA6 C55 (Q15084) (Homo sapiens, UniProt Q15084); conditions: for isoTOP-ABPP reactivity profile ratio, Q15084_C55: 500 μm
T4 sequence (Q15084 20-440): T3 sequence (Q15084 20-440)

ACAT1 C126 (P24752) = target: T5, ACAT1 C126 (P24752) (Homo sapiens, UniProt P24752)
T5 sequence (P24752 34-427): T1 sequence (P24752 34-427)

Chain of XPO1 C34 (O14980) (O14980 whole entry): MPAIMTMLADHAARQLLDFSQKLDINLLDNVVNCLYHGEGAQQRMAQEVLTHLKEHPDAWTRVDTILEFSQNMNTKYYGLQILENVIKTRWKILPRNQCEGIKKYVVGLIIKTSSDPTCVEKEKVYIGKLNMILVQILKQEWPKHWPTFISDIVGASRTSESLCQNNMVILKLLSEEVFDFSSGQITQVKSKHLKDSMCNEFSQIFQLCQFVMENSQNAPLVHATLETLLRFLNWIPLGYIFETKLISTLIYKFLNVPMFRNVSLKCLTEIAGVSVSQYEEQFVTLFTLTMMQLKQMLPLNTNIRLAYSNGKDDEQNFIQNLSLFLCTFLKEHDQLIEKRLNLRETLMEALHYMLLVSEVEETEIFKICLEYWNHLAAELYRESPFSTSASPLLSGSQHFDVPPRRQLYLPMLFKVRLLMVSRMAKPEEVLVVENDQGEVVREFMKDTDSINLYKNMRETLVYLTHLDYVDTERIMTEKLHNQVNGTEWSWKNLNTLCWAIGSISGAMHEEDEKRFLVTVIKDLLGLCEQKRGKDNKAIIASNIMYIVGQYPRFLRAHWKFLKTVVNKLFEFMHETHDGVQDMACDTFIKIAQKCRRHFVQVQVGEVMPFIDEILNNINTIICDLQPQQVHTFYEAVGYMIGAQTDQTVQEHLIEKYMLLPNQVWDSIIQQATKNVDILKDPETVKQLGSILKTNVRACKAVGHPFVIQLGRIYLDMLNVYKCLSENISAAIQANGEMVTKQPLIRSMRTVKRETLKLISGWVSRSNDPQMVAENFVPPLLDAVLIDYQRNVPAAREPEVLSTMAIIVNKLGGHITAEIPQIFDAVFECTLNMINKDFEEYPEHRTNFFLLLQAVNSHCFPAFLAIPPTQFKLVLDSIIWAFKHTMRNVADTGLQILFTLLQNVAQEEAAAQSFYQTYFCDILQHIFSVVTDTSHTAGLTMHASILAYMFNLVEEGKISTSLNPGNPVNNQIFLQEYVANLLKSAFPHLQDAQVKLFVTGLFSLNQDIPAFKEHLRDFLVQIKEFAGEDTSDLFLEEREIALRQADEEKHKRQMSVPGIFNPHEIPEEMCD
Chain of GSTP1 C48 (P09211) (P09211 whole entry, the tested form may be a part): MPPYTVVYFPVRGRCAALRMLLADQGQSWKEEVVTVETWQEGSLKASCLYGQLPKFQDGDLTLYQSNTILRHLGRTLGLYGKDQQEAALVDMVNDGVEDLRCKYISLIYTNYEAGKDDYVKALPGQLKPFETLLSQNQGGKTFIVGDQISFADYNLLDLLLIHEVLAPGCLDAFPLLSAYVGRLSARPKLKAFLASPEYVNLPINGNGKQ
Chain of SMARCC2 C145 (Q8TAQ2) (Q8TAQ2 whole entry, the tested form may be a part): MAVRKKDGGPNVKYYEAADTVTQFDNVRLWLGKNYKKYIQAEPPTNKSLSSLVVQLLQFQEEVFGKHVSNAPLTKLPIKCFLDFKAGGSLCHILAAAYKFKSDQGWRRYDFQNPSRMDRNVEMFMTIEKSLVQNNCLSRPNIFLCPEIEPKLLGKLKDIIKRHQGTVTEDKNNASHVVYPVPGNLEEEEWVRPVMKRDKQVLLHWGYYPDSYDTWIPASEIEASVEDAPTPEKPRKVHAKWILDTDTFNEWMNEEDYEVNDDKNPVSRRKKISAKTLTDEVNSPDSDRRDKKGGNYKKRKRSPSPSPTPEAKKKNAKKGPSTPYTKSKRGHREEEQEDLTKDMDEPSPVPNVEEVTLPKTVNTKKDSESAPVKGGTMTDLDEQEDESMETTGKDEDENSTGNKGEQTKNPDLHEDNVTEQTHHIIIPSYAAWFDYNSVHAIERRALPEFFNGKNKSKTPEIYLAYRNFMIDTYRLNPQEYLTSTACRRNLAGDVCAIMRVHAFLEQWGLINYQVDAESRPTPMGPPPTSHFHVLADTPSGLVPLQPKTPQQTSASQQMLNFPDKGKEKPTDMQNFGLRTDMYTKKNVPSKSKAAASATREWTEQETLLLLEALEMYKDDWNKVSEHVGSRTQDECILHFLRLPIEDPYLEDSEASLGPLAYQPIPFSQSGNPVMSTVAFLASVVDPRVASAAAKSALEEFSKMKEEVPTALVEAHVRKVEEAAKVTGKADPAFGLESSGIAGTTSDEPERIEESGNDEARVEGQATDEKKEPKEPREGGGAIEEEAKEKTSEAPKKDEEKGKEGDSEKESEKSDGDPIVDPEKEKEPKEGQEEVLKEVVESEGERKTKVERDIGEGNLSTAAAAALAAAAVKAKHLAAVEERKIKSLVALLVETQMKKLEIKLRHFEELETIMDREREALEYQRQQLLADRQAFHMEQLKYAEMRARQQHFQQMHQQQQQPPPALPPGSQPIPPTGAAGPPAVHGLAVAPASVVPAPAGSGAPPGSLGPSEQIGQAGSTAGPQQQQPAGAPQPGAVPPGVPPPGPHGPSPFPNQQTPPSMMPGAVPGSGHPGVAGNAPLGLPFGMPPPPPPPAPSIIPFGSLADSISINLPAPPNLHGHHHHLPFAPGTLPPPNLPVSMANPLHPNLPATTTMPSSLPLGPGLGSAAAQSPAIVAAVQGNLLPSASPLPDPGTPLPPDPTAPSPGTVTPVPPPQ

Structure (SMILES)	isoTOP-ABPP ratio (reactivity profile), P24752_C119 (ACAT1 C119 (P24752); 500 μm in-vitro ramos)	isoTOP-ABPP ratio (reactivity profile), P24752_C119 (ACAT1 C119 (P24752); 500 μm in-vitro ramos_231)	isoTOP-ABPP ratio (reactivity profile), Q16763_C118 (UBE2S C118 (Q16763); 500 μm in-vitro ramos)	isoTOP-ABPP ratio (reactivity profile), Q15084_C190 (PDIA6 C190 (Q15084); 500 μm in-vitro ramos)	isoTOP-ABPP ratio (reactivity profile), Q15084_C190 (PDIA6 C190 (Q15084); 500 μm in-vitro ramos_231)	isoTOP-ABPP ratio (reactivity profile), O14980_C34 (XPO1 C34 (O14980); 500 μm in-vitro ramos_231)	isoTOP-ABPP ratio (reactivity profile), Q8TAQ2_C145 (SMARCC2 C145 (Q8TAQ2); 500 μm in-vitro ramos)	isoTOP-ABPP ratio (reactivity profile), P09211_C48 (GSTP1 C48 (P09211); 500 μm in-vitro ramos)	isoTOP-ABPP ratio (reactivity profile), P09211_C48 (GSTP1 C48 (P09211); 500 μm in-vitro ramos_231)	isoTOP-ABPP ratio (reactivity profile), Q15084_C55 (PDIA6 C55 (Q15084); 500 μm in-vitro ramos)	isoTOP-ABPP ratio (reactivity profile), Q15084_C55 (PDIA6 C55 (Q15084); 500 μm in-vitro ramos_231)	isoTOP-ABPP ratio (reactivity profile), P24752_C126 (ACAT1 C126 (P24752); 500 μm in-vitro ramos)	isoTOP-ABPP ratio (reactivity profile), P24752_C126 (ACAT1 C126 (P24752); 500 μm in-vitro ramos_231)	isoTOP-ABPP reactivity profile ratio, P24752_C119 (ACAT1 C119 (P24752); 500 μm, in-vitro_ramos_231)	isoTOP-ABPP reactivity profile ratio, O14980_C34 (XPO1 C34 (O14980); 500 μm, in-vitro_ramos_231)	isoTOP-ABPP reactivity profile ratio, P09211_C48 (GSTP1 C48 (P09211); 500 μm, in-vitro_ramos_231)	isoTOP-ABPP reactivity profile ratio, P24752_C126 (ACAT1 C126 (P24752); 500 μm, in-vitro_ramos_231)	further results
O=C(CCl)N1CCOCC1 [compound 22]	0.8	1.0	0.9	4.2	2.2	1.1	1.2	0.7	0.9	1.6	2.1	1.7	2.4					
N#CC(=Cc1ccc(-c2ccccc2Cl)o1)C(N)=O [compound 42]																		isoTOP-ABPP reactivity profile ratio, P24752_C119 (ACAT1 C119 (P24752); 500 μm, in-vitro_ramos): 0.8; isoTOP-ABPP reactivity profile ratio, Q16763_C118 (UBE2S C118 (Q16763); 500 μm, in-vitro_ramos): 0.8; isoTOP-ABPP reactivity profile ratio, O14980_C34 (XPO1 C34 (O14980); 500 μm, in-vitro_ramos): 0.9; isoTOP-ABPP reactivity profile ratio, Q8TAQ2_C145 (SMARCC2 C145 (Q8TAQ2); 500 μm, in-vitro_ramos): 1.0; isoTOP-ABPP reactivity profile ratio, P09211_C48 (GSTP1 C48 (P09211); 500 μm, in-vitro_ramos): 0.7; isoTOP-ABPP reactivity profile ratio, Q15084_C55 (PDIA6 C55 (Q15084); in-vitro_ramos): 0.9; isoTOP-ABPP reactivity profile ratio, P24752_C126 (ACAT1 C126 (P24752); 500 μm, in-vitro_ramos): 0.8
COc1ccccc1OCCNC(=O)CCl [compound 28]	1.1	1.1	0.8	1.6	1.1	0.8	1.2	1.5	1.3	1.5	1.1	1.6	1.7					isoTOP-ABPP ratio (reactivity profile), Q16763_C118 (UBE2S C118 (Q16763); 500 μm in-vitro ramos_231): 1.0; isoTOP-ABPP ratio (reactivity profile), O14980_C34 (XPO1 C34 (O14980); 500 μm in-vitro ramos): 0.9; isoTOP-ABPP ratio (reactivity profile), Q8TAQ2_C145 (SMARCC2 C145 (Q8TAQ2); 500 μm in-vitro ramos_231): 1.1
CC(Cl)C(=O)Nc1cc(C(F)(F)F)cc(C(F)(F)F)c1 (centres unmarked) [compound 25]		1.0			1.0	0.9			1.8		1.0		0.9					isoTOP-ABPP ratio (reactivity profile), Q16763_C118 (UBE2S C118 (Q16763); 500 μm in-vitro ramos_231): 1.0; isoTOP-ABPP ratio (reactivity profile), Q8TAQ2_C145 (SMARCC2 C145 (Q8TAQ2); 500 μm in-vitro ramos_231): 0.9
CCN(CC)c1ccc(S(N)(=O)=O)cc1NC(=O)CCl [compound 30]	0.7		0.7	2.3			1.1	1.4		2.2		1.1						isoTOP-ABPP reactivity ratio, P24752_C119 (ACAT1 C119 (P24752); 500 μm, in-vitro_ramos): 0.9; isoTOP-ABPP reactivity ratio, Q16763_C118 (UBE2S C118 (Q16763); 500 μm, in-vitro_ramos): 1.1; isoTOP-ABPP ratio (reactivity profile), O14980_C34 (XPO1 C34 (O14980); 500 μm in-vitro ramos): 0.7; isoTOP-ABPP reactivity ratio, O14980_C34 (XPO1 C34 (O14980); 500 μm, in-vitro_ramos): 1.1; isoTOP-ABPP reactivity ratio, Q8TAQ2_C145 (SMARCC2 C145 (Q8TAQ2); 500 μm, in-vitro_ramos): 1.5; isoTOP-ABPP reactivity ratio, P09211_C48 (GSTP1 C48 (P09211); 500 μm, in-vitro_ramos): 1.2; isoTOP-ABPP reactivity ratio, P24752_C126 (ACAT1 C126 (P24752); 500 μm, in-vitro_ramos): 1.6

Further lines, with some results ahead:

isoTOP-ABPP ratio (reactivity profile), P24752_C119 (ACAT1 C119 (P24752); 500 μm in-vitro ramos)	isoTOP-ABPP ratio (reactivity profile), P24752_C119 (ACAT1 C119 (P24752); 500 μm in-vitro ramos_231)	isoTOP-ABPP ratio (reactivity profile), Q16763_C118 (UBE2S C118 (Q16763); 500 μm in-vitro ramos)	isoTOP-ABPP ratio (reactivity profile), Q15084_C190 (PDIA6 C190 (Q15084); 500 μm in-vitro ramos)	isoTOP-ABPP ratio (reactivity profile), Q15084_C190 (PDIA6 C190 (Q15084); 500 μm in-vitro ramos_231)	isoTOP-ABPP ratio (reactivity profile), O14980_C34 (XPO1 C34 (O14980); 500 μm in-vitro ramos_231)	isoTOP-ABPP ratio (reactivity profile), Q8TAQ2_C145 (SMARCC2 C145 (Q8TAQ2); 500 μm in-vitro ramos)	isoTOP-ABPP ratio (reactivity profile), P09211_C48 (GSTP1 C48 (P09211); 500 μm in-vitro ramos)	isoTOP-ABPP ratio (reactivity profile), P09211_C48 (GSTP1 C48 (P09211); 500 μm in-vitro ramos_231)	isoTOP-ABPP ratio (reactivity profile), Q15084_C55 (PDIA6 C55 (Q15084); 500 μm in-vitro ramos)	isoTOP-ABPP ratio (reactivity profile), Q15084_C55 (PDIA6 C55 (Q15084); 500 μm in-vitro ramos_231)	isoTOP-ABPP ratio (reactivity profile), P24752_C126 (ACAT1 C126 (P24752); 500 μm in-vitro ramos)	isoTOP-ABPP ratio (reactivity profile), P24752_C126 (ACAT1 C126 (P24752); 500 μm in-vitro ramos_231)	isoTOP-ABPP reactivity profile ratio, P24752_C119 (ACAT1 C119 (P24752); 500 μm, in-vitro_ramos_231)	isoTOP-ABPP reactivity profile ratio, O14980_C34 (XPO1 C34 (O14980); 500 μm, in-vitro_ramos_231)	isoTOP-ABPP reactivity profile ratio, P09211_C48 (GSTP1 C48 (P09211); 500 μm, in-vitro_ramos_231)	isoTOP-ABPP reactivity profile ratio, P24752_C126 (ACAT1 C126 (P24752); 500 μm, in-vitro_ramos_231)	Structure (SMILES)	further results
													12.4	1.8	19.7	20.0	CC1CCc2ccccc2N1C(=O)CCl (centres unmarked) [compound 45]	
													2.1	1.2	2.3	20.0	O=C(CCl)N1CCc2cc(Br)ccc21 [compound 50]	isoTOP-ABPP reactivity profile ratio, Q16763_C118 (UBE2S C118 (Q16763); 500 μm, in-vitro_ramos_231): 0.8; isoTOP-ABPP reactivity profile ratio, Q8TAQ2_C145 (SMARCC2 C145 (Q8TAQ2); 500 μm, in-vitro_ramos_231): 2.8; isoTOP-ABPP reactivity profile ratio, Q15084_C55 (PDIA6 C55 (Q15084); in-vitro_ramos_231): 1.3
													0.8	0.8	0.9	0.8	O=C(CCl)NC1C(O)OC(CO)C(O)C1O (mixture of isomers) [compound 44]	isoTOP-ABPP reactivity profile ratio, Q16763_C118 (UBE2S C118 (Q16763); 500 μm, in-vitro_ramos_231): 0.8; isoTOP-ABPP reactivity profile ratio, Q15084_C190 (PDIA6 C190 (Q15084); 500 μm, in-vitro_ramos_231): 1.0; isoTOP-ABPP reactivity profile ratio, Q8TAQ2_C145 (SMARCC2 C145 (Q8TAQ2); 500 μm, in-vitro_ramos_231): 1.0; isoTOP-ABPP reactivity profile ratio, Q15084_C55 (PDIA6 C55 (Q15084); in-vitro_ramos_231): 1.0
